Experiments:
[1] = tested on: female rats during pregnancy; assay: Teratogenic effects in the rat; type: in vivo; details: dose of 6 mg/kg/day, subcutaneously, day 8 to 14 of pregnancy
From the text: Teratogenic effects in the rat.
The compounds were administrated subcutaneously to female rats during pregnancy, i.e., day 8 to 14 of pregnancy. The rats were caesarean sectioned and necropsied on day 20 after fertilisation. The foetuses were examined for external and internal abnormalities.

[2] = tested on: female rats during pregnancy; details: no dose given, background statement; cited from earlier work
[3] = tested on: man; details: e.g. a flu-like syndrome; cited from earlier work
[4] = tested on: beagle dogs; assay: Beagle Pain Syndrome (BPS); type: in vivo; details: different breeds of beagle dogs
Protocol: The disease is reflected by clinical and laboratory manifestations justifying BPS as a model for the flu-like syndrome induced by roquinimex in man.
Beagle Pain Syndrome (BPS).
The compounds were administrated intravenously to beagle dogs. The dosage was given for five consecutive days. The dogs were evaluated for clinical and laboratory signs of the pain syndrome, e.g., fever, increased erythrocyte sedimentation rate (ESR), alkaline phosphate (AP), induction of acute phase proteins and vasculitis

[5] = tested on: acute experimental autoimmune encephalomyelitis (aEAE); assay: Acute experimental autoimmune encephalomyelitis (aEAE) inhibition; type: in vivo; details: at ≥5 mg/kg, mice, treatment control

CSc1cccc2c1c(O)c(C(=O)N(C)c1ccccc1)c(=O)n2C [N-methyl-N-phenyl-1,2-dihydro-4-hydroxy-5-methylthio-1-methyl-2-oxo-quinoline-3-carboxamide]
Teratogenic effects in the rat [1]: teratogenic

CN(C(=O)c1c(O)c2ccccc2n(C)c1=O)c1ccccc1 [Roquinimex, roquinimex]
teratogenic in the rat [2]: teratogenic | side effects in man [3]: induces dose-limiting side effects | induction of the Beagle Pain Syndrome (BPS) [4]: induce the Beagle Pain Syndrome (BPS) | inhibition of acute experimental autoimmune encephalomyelitis (aEAE) [5]: more than 50%

CSc1cccc2c1c(O)c(C(=O)N(C)c1ccc(F)cc1F)c(=O)n2C [Compound B, N-methyl-N-(2,4-difluoro-phenyl)-1,2-dihydro-4-hydroxy-5-methylthio-1-methyl-2-oxo-quinoline-3-carboxamide]
Teratogenic effects in the rat [1]: non-teratogenic

CCN(C(=O)c1c(O)c2c(SC)cccc2n(C)c1=O)c1ccccc1 [Compound A, N-ethyl-N-phenyl-1,2-dihydro-4-hydroxy-5-methylthio-1-methyl-2-oxo-quinoline-3-carboxamide]
Teratogenic effects in the rat [1]: non-teratogenic

From patent EP1097139B1, “QUINOLINE DERIVATIVES” (Active Biotech AB, priority 1998, dated 2000)
